Experiments:
[1] = test system: T1, MIP (manganese-independent peroxidase); test: initial rates, oxidation of DMP at […] nm; assay type: biochemical, Cladosporium cladosporioides; details: without H2O2 and Mn2+; optimal conditions (20°C, pH 2.5), but b56 states 28°C and 10 to 40 mmol/L substrate; malonate buffer; compound identity doubtful: DMP is spelt out as dimethyl phthalate
T1 construct: native enzyme purified from culture supernatant (ammonium sulfate, DEAE-Sephadex A 50, CM-Sephadex C 50, Sephadex G-75); about 47 kDa by SDS-PAGE

[2] = test system: laccase; details: optimal conditions (15°C, pH 3.5), but b56 states 28°C and 10 to 40 mmol/L substrate; sodium acetate buffer

SMILES	Km [1] [µM]	Km [2] [µM]
COc1cccc(OC)c1O [DMP]	6.9	–
CCn1c(=NN=c2sc3cc(S(=O)(=O)O)ccc3n2CC)sc2cc(S(=O)(=O)O)ccc21 [ABTS]	–	2.8

Source: PMC4172917, “Synergy of crude enzyme cocktail from cold-adapted Cladosporium cladosporioides Ch2-2 with commercial xylanase achieving high sugars yield at low cost” (Biotechnology for Biofuels, 2014)
